These results are taken from US6413944B1 (Regents of the University of Michigan, priority 1991, dated 2002).

One series deals with HCMV. In words: HCMV plaque (focus) reduction assay in HFF cells. Format: cell-based, human cytomegalovirus. Particulars: in words.
Another series relates to HIV. Format: cell-based. Particulars: persistently infected monocyte/macrophages and T-cells; reverse transcriptase, p24 core antigen, infectious virus; in words.
The next series has as its system HIV-1. Briefly: microbe, parasite or virus in culture. Conditions: for IC50: Human immunodeficiency virus 1, CEM-SS. As to the method:
CEM-SS cells were seeded at 10,000 cells per well into 96-cell plates precoated with poly L-lysine. The cell monolayers were infected with about 50 plaque forming units of HIV-1. After 1 hr for virus attachment, the cell monolayers were overlaid with growth medium with or without added test compound. After 3 days incubation at 37° C. in a CO2 incubator, the cell monolayers received a second overlay of growth medium with or without added test compound and incubation at 37° C. continued for a total of 5 days. HIV-1 plaques were counted, the counts entered into a computer and a IC50 for HIV-1 plaque formation was determined. Each experiment was replicated at least once.
Dose-response relationships were used to compare drug effects. These were constructed by linearly regressing the percent inhibition of parameters derived in the preceding sections against log drug concentrations. The 50% inhibitory (I50) concentrations were calculated from the regression lines.

Series [1] can be described thus: Cytotoxicity by uptake of [3H]thymidine in uninfected CEM-SS cells. It counts as cell-based. Particulars: human; uptake of [3H]thymidine in uninfected CEM-SS cells (Table I); read-out: 50% Inhibitory Concentration, Cytotoxicity.
Description: CEM-SS cells were seeded in 96 well plates (10,000 cells per well) in growth medium containing various concentrations of test compound and incubated at 37° C. in a CO2 incubator. After 36 hours incubation the cells were pulse-labeled for 4 hours at 37° C. with 1 μCi ^3H-TdR uptake into cellular DNA. Controls consisted of CEM-SS cells not treated with drug and pulse-labeled for 4 hours with [^3H]thymidine (positive control) or harvested immediately after addition of [^3H]thymidine (negative control). The harvested samples were counted by scintillation spectrometry to obtain a mean±one S.D. for each set of triplicate wells. The data were entered into a computer and used to determine a IC50 for cell cytotoxicity. Each experiment was replicated at least once.
The next series deals with RT (Human immunodeficiency virus type 1 group M subtype B, UniProt P04585). In words: RT inhibition assays. It counts as biochemical. Particulars: in words.

Like-named read-outs stand apart in the source and are kept apart here.

With `Cc1cn([C@H]2C[C@H](N=[N+]=[N-])[C@@H](CO)O2)c(=O)[nH]c1=O` [AZT, zidovudine], the “activity against HCMV” value in the series with HCMV was “inactive”. The “activity in reducing HIV production in persistently infected cells” value in the series with HIV is “not active”. Also, the IC50 is 2.7 nM in the series on HIV-1 (read-out: 50% Inhibitory Concentration, Antiviral Activity: HIV, syncytial assay in CEM-SS cells (Table I)); 210 nM in the series with HIV-1 (read-out: Syncytial Assay 50% Inhibitory Concentration, HIV-1G-691 (post AZT therapy), clinical isolate resistant to AZT); 0.2 nM in the series with HIV-1 (read-out: Syncytial Assay 50% Inhibitory Concentration, HIV-1G-762 (pre AZT therapy), clinical isolate sensitive to AZT); 7200 nM with HIV-1 (read-out: Syncytial Assay 50% Inhibitory Concentration, HIV-1G-910 (post AZT therapy)); below 1 nM in the series with HIV-1 (read-out: Syncytial Assay 50% Inhibitory Concentration, HIV-1H-1112 (pre AZT therapy)); 2 nM in the series on HIV-1 (read-out: Syncytial Assay 50% Inhibitory Concentration, HIV-1IIIB (Table III)). The “Differential Selectivity (HIV)” value in the series on HIV-1 (cytotoxicity in CEM-SS cells versus HIV syncytial assay) is recorded as 1852. The IC50 at 36 h in series [1] turned out to be 5000 nM.
As to `CN1N=C(N)c2cn(C3OC(COP(=O)(O)OP(=O)(O)OP(=O)(O)O)C(O)C3O)c3ncnc1c23` (stereo not drawn) [TCN-triphosphate], the “inhibition of RT enzyme” value at RT is “do not act via inhibition of this enzyme”.
On to `Nc1ccn([C@H]2CC[C@@H](CO)O2)c(=O)n1` [ddC, dideoxycytidine], for which the “activity in reducing HIV production in persistently infected cells” value with HIV is recorded as “not active”.
